According to ChEMBL document CHEMBL3826897, “A facile and rapid access to resveratrol derivatives and their radioprotective activity” (Bioorg Med Chem Lett, 2016):

Key:
[1] = Stability of the compound; type: physicochemical
[2] = Radioprotective activity in rat thymocytes assessed as radio-modification factor pretreated at 1 uM followed by 2 Gy X-ray irradiation measured after 4 hrs by flow cytometric analysis relative to control; type: ADME, cell-based; conditions: thymocyte
[3] = Radioprotective activity in rat thymocytes assessed as radio-modification factor pretreated at 10 uM followed by 2 Gy X-ray irradiation measured after 4 hrs by flow cytometric analysis relative to control; type: ADME, cell-based; conditions: thymocyte
Thymocyte [4] = assay: Toxicity in rat thymocytes assessed as increase in cell death at 1 uM measured after 4 hrs by flow cytometric analysis relative to control; type: cell-based
Thymocyte [5] = assay: Toxicity in rat thymocytes assessed as increase in cell death at 10 uM measured after 4 hrs by flow cytometric analysis relative to control; type: cell-based
Thymocyte [6] = assay: Toxicity in rat thymocytes assessed as increase in cell death at 100 uM measured after 4 hrs by flow cytometric analysis relative to control; type: cell-based
Thymocyte [7] = assay: Toxicity in rat thymocytes assessed as increase in cell death at 1000 uM measured after 4 hrs by flow cytometric analysis relative to control; type: cell-based
[8] = Radioprotective activity in rat thymocytes assessed as radio-modification factor pretreated at 100 uM followed by 2 Gy X-ray irradiation measured after 4 hrs by flow cytometric analysis relative to control; type: ADME, cell-based; conditions: thymocyte
[9] = Radioprotective activity in rat thymocytes assessed as radio-modification factor pretreated at 1000 uM followed by 2 Gy X-ray irradiation measured after 4 hrs by flow cytometric analysis relative to control; type: ADME, cell-based; conditions: thymocyte

SMILES | Stability [1] | Ratio [2] | Ratio [3] | Ratio (Thymocyte [4]) | Ratio (Thymocyte [5]) | Ratio (Thymocyte [6]) | Ratio (Thymocyte [7]) | Ratio [8] | Ratio [9]
Nc1ccc(/C=C/c2cc(O)cc(O)c2)cc1 | Unstable |  |  |  |  |  |  |  | 
COc1cc(/C=C/c2ccc(Cl)cc2)cc(OC)c1 | Unstable |  |  |  |  |  |  |  | 
COc1cc(/C=C/c2ccc(F)cc2)cc(OC)c1 |  | 1.34 | 1.26 | < 5 | < 5 | > 10 | > 10 |  | 
Oc1ccc(/C=C/c2cc(O)ccc2O)cc1 |  | 1.7 |  | < 5 | > 10 | > 10 | > 10 |  | 
COc1ccc(/C=C/c2cc(OC)ccc2OC)cc1 |  | 0.7 | 1.2 | < 5 | < 5 | < 5 | < 5 | 0.9 | 0.7
COc1cccc(/C=C/c2cc(OC)cc(OC)c2)c1 |  | 1.4 | 1.2 | < 5 | < 5 | < 5 | < 5 | 1.1 | 0.2
COc1ccc(/C=C/c2cccc(OC)c2)cc1 |  | 1 | 1.1 | < 5 | < 5 | < 5 | < 5 | 1.1 | 1.5
COc1ccc(/C=C/c2ccccc2OC)cc1 |  | 1.3 | 1.3 | < 5 | < 5 | < 5 | 5 | -0.2 | 0.2
COc1ccc(/C=C/c2ccc(OC)cc2)cc1 |  | 1.1 | 1 | < 5 | < 5 | < 5 | < 5 | 1.3 | 1.5
COc1ccc(/C=C/c2ccc(OC)c(OC)c2)cc1 |  | 0.8 | 1 | < 5 | < 5 | < 5 | 5 | 0.7 | 0.5
Oc1ccc(/C=C/c2ccc(O)c(O)c2)cc1 |  | 2.2 | 1.3 | < 5 | < 5 | < 5 | > 10 | -0.3 | 
Oc1ccc(/C=C/c2ccccc2O)cc1 |  | 0.4 | 0.7 | 5 | < 5 | 5 | > 10 | 0.5 | 
Oc1cc(O)cc(/C=C/c2ccccc2O)c1 |  | 1.2 | 1.3 | < 5 | < 5 | < 5 | > 10 | 0.4 | 
COc1cc(/C=C/c2ccc(C)cc2)cc(OC)c1 | Unstable |  |  |  |  |  |  |  | 
COc1cc(/C=C/c2ccc(OC(C)=O)cc2)cc(OC)c1 |  | 0.99 | 0.86 | < 5 | 5 | 5 | 5 | 0.52 | 0.07
Oc1cc(O)cc(/C=C/c2ccc(Cl)cc2)c1 |  | 0.56 | 0.47 | 5 | 5 | > 10 | > 10 |  | 

SMILES | Stability [1] | Ratio [2] | Ratio [3] | Ratio (Thymocyte [4]) | Ratio (Thymocyte [5]) | Ratio (Thymocyte [6]) | Ratio (Thymocyte [7]) | Ratio [8] | Ratio [9]
COc1cc(/C=C/c2ccccc2OC)cc(OC)c1 |  | 0.8 | 0.6 | < 5 | < 5 | < 5 | 5 | 0.3 | 0.1
Cc1ccc(/C=C/c2cc(O)cc(O)c2)cc1 |  | 0.94 | 1.06 | < 5 | < 5 | > 10 | < 5 | 0.11 | 
CC(=O)Nc1ccc(/C=C/c2cc(O)cc(O)c2)cc1 | Unstable |  |  |  |  |  |  |  | 
COc1cc(/C=C/c2ccc(NC(C)=O)cc2)cc(OC)c1 |  | 1.25 | 1.21 | < 5 | < 5 | < 5 | < 5 | 0.99 | 1.05
COc1ccc(/C=C/c2ccc(OC)c(OC)c2)cc1OC |  | 0.4 | 1 | < 5 | < 5 | 5 | 5 | 0.4 | 0.3
Oc1cc(O)cc(/C=C/c2ccc(F)cc2)c1 |  | 0.89 | 0.81 | < 5 | < 5 | < 5 | > 10 | -0.22 | 
CC(=O)Oc1ccc(/C=C/c2cc(O)cc(O)c2)cc1 |  | 1.14 | 1.01 | < 5 | < 5 | < 5 | > 10 | 0.91 | 
Oc1ccc(/C=C/c2ccc(O)c(O)c2)cc1O | Unstable |  |  |  |  |  |  |  | 
Oc1cccc(/C=C/c2cc(O)cc(O)c2)c1 |  | 0.9 | 0.9 | < 5 | < 5 | < 5 | > 10 | 0.3 | 
COc1cc(/C=C/c2ccccc2)cc(OC)c1 [3,5-O-DIMETHYLPINOSYLVIN] | Unstable |  |  |  |  |  |  |  | 
Oc1ccc(/C=C/c2cccc(O)c2)cc1 [(E)-3,4'-STILBENDIOL] |  | 1.4 | 1.2 | < 5 | < 5 | < 5 | < 5 | 1.6 | 0.6
Oc1cc(O)cc(/C=C/c2ccccc2)c1 [PINOSYLVIN] | Unstable |  |  |  |  |  |  |  | 
Oc1ccc(/C=C/c2cc(O)cc(O)c2)cc1 [RESVERATROL] |  | 0.93 | 1.06 | < 5 | < 5 | < 5 | < 5 | 0.59 | -0.34
Oc1ccc(/C=C/c2ccc(O)cc2)cc1 [TRANS-4,4'-DIHYDROXYSTILBENE] |  | 0.6 | 1.1 | < 5 | < 5 | < 5 | < 5 | 1.2 | 1.1
COc1ccc(/C=C/c2cc(OC)cc(OC)c2)cc1 [TRISMETHOXYRESVERATROL] |  | 0.82 | 0.85 | < 5 | < 5 | < 5 | 5 | 0.31 | -0.15
